Measurements: patent US20070248996A1, “Modulators of beta-amyloid peptide aggregation comprising D-amino acids” (Paraecis Pharmaceuticals, Inc., priority 1995, published 2007)
Where two headings read alike, the source gives them in different places. Square brackets hold non-standard residues; d marks the D form. Peptide text beside a SMILES is read from it. * marks the point of attachment. Benzoyl(4-OH) = O=C(c1ccc(O)cc1)*; d3Pal = N[C@H](Cc1cccnc1)C(=O)O; X1 = O=C(c1cc2cc(O)ccc2cc1O)*

Target: Aβ1-40 (Homo sapiens, UniProt P05067)
Format: biochemical
Design: ΔLag: unit not given here
Details: for ΔLag: Table XI; for ΔLag 3 μM: 3 μM test compound; for ΔLag 4 μM: 4 μM test compound
Source text: The nucleation assay is employed to determine the ability of test compounds to alter (e.g. inhibit) the early events in formation of β-AP fibers from monomeric β-AP. Characteristic of a nucleated polymerization mechanism, a lag time is observed prior to nucleation, after which the peptide rapidly forms fibers as reflected in a linear rise in turbidity. The time delay before polymerization of β-AP monomer can be quantified as well as the extent of formation of insoluble fiber by light scattering (turbidity). Polymerization reaches equilibrium when the maximum turbidity reaches a plateau The turbidity of a solution of natural β-AP in the absence or presence of various concentrations of a β-amyloid modulator compound is determined by measuring the apparent absorbance of the solution at 405 nm (A405 nm) over time. The threshold of sensitivity for the measurement of turbidity is in the range of 15-20 μM β-AP. […] This assay can be performed using stirring or shaking to accelerate polymerization, thereby increasing the speed of the assay. Moreover the assay can be adapted to a 96-well plate format to screen multiple compounds.
HFIP-solubilized peptide is sonicated in a waterbath sonicator for 5 min at highest setting, then evaporated to dryness under a stream of argon. The peptide film is resuspended in anhydrous dimethylsulfoxide (DMSO) at a concentration of 6.9 mg/ml (25× concentration), sonicated for 5 min as before, then filtered through a 0.2 micron nylon syringe filter (VWR cat. No.28196-050). Test compounds are dissolved in DMSO at a 100× concentration. […] Ten microliters of the mixture is then added to the bottom of a well of a Corning Costar ultra low binding 96-well plate (Coming Costar, Cambridge Mass.; cat. No. 2500). Ninety microliters of water is added to the well, the plate is shaken on a rotary shaken at a constant speed at room temperature for 30 seconds, an additional 100 μl of 2× PTL buffer (20 mM NaH2PO4, 300 mM NaCl, pH 7.4) is added to the well, the plate is reshaken for 30 seconds and a baseline (t=0) turbidity reading is taken by measuring the apparent absorbance at 405 nm using a Bio-Rad Model 450 Microplate Reader. The plate is then returned to the shaker and shaken continuously for 5 hours. Turbidity readings are taken at 15 minute intervals.
β-amyloid aggregation in the absence of any modulators results in enhanced turbidity of the natural β-AP solution (i.e., an increase in the apparent absorbance at 405 nm over time). […]

[1] = Table V, hydroxylated and oxygenated modifying groups, 5 μM test compound
[2] = Table IV, hydrophobic modifying groups, 5 μM test compound
[3] = Table II, second series, different stock of Aβ1-40, 2 μM test compound
[4] = Table II, second series, different stock of Aβ1-40
[5] = Table II, second series, different stock of Aβ1-40, 5 μM test compound

Aβ1-40, sequence (P05067 672-711): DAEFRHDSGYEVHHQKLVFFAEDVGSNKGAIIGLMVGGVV

3,5-Dihydroxy-2-naphthoyl-d(LVFF)-nh2 [PPI-487]
ΔLag 5 μM [1]: 2.2

Triphenylacetyl-d(LVFF)-nh2 [PPI-485]
ΔLag 5 μM [2]: 2.7

H-d(FFVL)-nh2 [PPI-602]
ΔLag 5 μM (Table X, 5 μM test compound): 1.6

CC(C)C[C@@H](NC(=O)[C@H](NC(=O)[C@@H](Cc1ccccc1)NC(=O)[C@@H](Cc1ccccc1)NC(=O)CN)C(C)C)C(N)=O [PPI-733, H-Glycyl-d(FFVL)-nh2] (H-G[dF][dF][dV][dL]-NH2)
ΔLag (5 μM test compound): 0

CC(C)C[C@@H](NC(=O)c1ccc(O)cc1)C(=O)N[C@@H](C(=O)N[C@H](Cc1ccc(O)cc1)C(=O)N[C@H](Cc1ccc(O)cc1)C(=O)N[C@H](C)C(N)=O)C(C)C [PPI-775, 4-Hydroxybenzoyl-d(LVYYA)-nh2] ({Benzoyl(4-OH)}-[dL][dV][dY][dY][dA]-NH2)
ΔLag (5 μM test compound): 1

CC(C)C[C@@H](N)C(=O)N[C@@H](C(=O)N[C@H](Cc1ccccc1)C(=O)N[C@H](Cc1ccccc1)C(=O)N[C@@H](C(N)=O)C(C)C)C(C)C [PPI-657, H-d(LVFFV)-nh2] (H-[dL][dV][dF][dF][dV]-NH2)
ΔLag (0.5 μM test compound): 1.7 | ΔLag (5 μM test compound): >10

4-Hydroxy-3-methoxycinnamoyl-d(LVFFA)-nh2 [PPI-555]
ΔLag 5 μM (Table IX, 5 μM test compound): 1.7

(±)-Mandelyl-d(LVFF)-nh2 [PPI-482 (isomer 2)]
ΔLag 5 μM [1]: 1.6

trans-Cinnamoyl-d(LVFF)-nh2 [PPI-490]
ΔLag 5 μM [2]: 1.0

h-d(VF)-PEA [PPI-493]
ΔLag 2 μM [3]: 1.0 | ΔLag 3 μM [4]: 1.0 | ΔLag 4 μM [4]: 1.0 | ΔLag 5 μM [5]: 1.9

DL-3-(4-Hydroxyphenyl)Lactyl-d(LVFFA)-nh2 [PPI-599]
ΔLag 5 μM (Table IX, 5 μM test compound): 1.4

L-3-Phenyllactyl-d(AFFVL)-nh2 [PPI-608]
ΔLag 5 μM (Table IX, 5 μM test compound): >6

3-Hydroxycinnamoyl-d(LVFFA)-nh2 [PPI-538]
ΔLag 5 μM (Table IX, 5 μM test compound): 2.0

H-d(A[homoPhe][homoPhe]VL)-nh2 [PPI-571]
ΔLag 5 μM (Table X, 5 μM test compound): >6

(±)-Mandelyl-d(AFFVL)-nh2 [PPI-584]
ΔLag 5 μM (Table IX, 5 μM test compound): 4.8

3,7-Dihydroxy-2-naphthoyl-d(FFFVL)-nh2 [PPI-650]
ΔLag 5 μM (Table IX, 5 μM test compound): 2.2

H-d(LFFFL)-nh2 [PPI-638]
ΔLag 5 μM (Table X, 5 μM test compound): >6

4-Hydroxyphenylacetyl-d(FFFVL)-nh2 [PPI-651]
ΔLag 5 μM (Table IX, 5 μM test compound): 2.1

D-3-Phenyllactyl-d(AFFVL)-nh2 [PPI-607]
ΔLag 5 μM (Table IX, 5 μM test compound): 3.1

h-d(VFF)-oh [PPI-502]
ΔLag 5 μM [2]: 1.0

4-Hydroxybenzoyl-d(LFFFL)-nh2 [PPI-643]
ΔLag 5 μM (Table IX, 5 μM test compound): 2.2

CA-LVYFA-cooh [PPI-399]
ΔLag 2 μM (Table I, 5 μM Aβ1-40, 2 μM test compound, ratio of lag time with compound to lag time of control): 3.0 | ΔLag 5 μM (Table I, 5 μM Aβ1-40, 5 μM test compound, ratio of lag time to control): 6

3,7-Dihydroxy-2-naphthoyl-d(LVFFA)-nh2 [PPI-548]
ΔLag 5 μM (Table VIII, 5 μM test compound): 2.5

cholyl-D-Leu-D-Val-D-Phe-phenethylamide [PPI-494]
ΔLag 2 μM [3]: 1.0 | ΔLag 3 μM [4]: 1.3 | ΔLag 4 μM [4]: 1.4 | ΔLag 5 μM [5]: 1.4 | ΔLag 5 μM [2]: 1.5 | ΔLag 5 μM (Table IX, 5 μM test compound): 1.3

3-(2-Hydroxyphenyl)propionyl-d(FFVL)-nh2 [PPI-615]
ΔLag 5 μM (Table IX, 5 μM test compound): 2.0

h-d(LVFF)-nh2 [PPI-471]
ΔLag 2 μM [3]: 2.6 | ΔLag 3 μM [4]: 2.6 | ΔLag 4 μM [4]: 2.6 | ΔLag 5 μM [5]: 2.4

CC(C)C[C@@H](NC(=O)c1ccc(O)cc1)C(=O)N[C@@H](C(=O)N[C@H](Cc1ccccc1)C(=O)N[C@H](Cc1ccc(O)cc1)C(=O)N[C@H](C)C(N)=O)C(C)C [PPI-772, 4-Hydroxybenzoyl-d(LVFYA)-nh2] ({Benzoyl(4-OH)}-[dL][dV][dF][dY][dA]-NH2)
ΔLag (5 μM test compound): 2

CC(C)C[C@@H](NC(=O)[C@H](NC(=O)[C@@H](Cc1ccccc1)NC(=O)[C@@H](Cc1ccccc1)NC(=O)[C@@H](Cc1cccnc1)NC(=O)c1cc2cc(O)ccc2cc1O)C(C)C)C(N)=O [PPI-664, 3,7-Dihidroxy-2-naphthol-d(Pal-FFVL)-nh2] (X1-[d3Pal][dF][dF][dV][dL]-NH2)
ΔLag (0.5 μM test compound): 0 | ΔLag (5 μM test compound): 2

D-3-Phenyllactyl-d(FFFVL)-nh2 [PPI-635]
ΔLag 5 μM (Table IX, 5 μM test compound): 2.5

3,4-Dihydroxycinnamoyl-d(LVFFA)-nh2 [PPI-543]
ΔLag 5 μM (Table IX, 5 μM test compound): 1.6
